# Measured values taken from patent publication US9233976B2, “Berbamine derivatives” (CITY OF HOPE, priority 2009, dated 2016).
# Columns and labels:
# [1] = tested on: DU145 prostate cancer cell line; experiment: MTS cell viability assay in DU145 cells; format: cell-based; details: DU145, 48 h
# Description: (§1) IC50 of values of berbamine derivatives were determined in cancer cell lines DU145 and A2058 respectively. DU145 and A2058 cells (5,000 cells/well) were treated with berbamine derivatives in a dose-dependent manner (0.1 to 20 μM in 1% DMSO for 48 h. Then, MTS assay for cell viability were carried out to determine the IC50 values. Four samples were tested for each berbamine derivatives at each concentration in each cell line, and the averaged data were shown in Table 1 and FIGS. 1-8.
# [2] = tested on: A2058 human melanoma cell line; experiment: MTS cell viability assay in A2058 cells; format: cell-based; details: A2058, 48 h
# Description: as §1
# [3] = tested on: Imatinib-resistant leukemia (K562/ADR) cells; experiment: Cell viability in imatinib-resistant leukemia cells; format: cell-based
# Description: Imatinib-resistant leukemia (K562/ADR) cells (5,000 cells/well) were treated with different concentrations (0.6-40 μM in DMSO) of BA #1, BA #3 and BA #4 respectively for 48 hours and cell viability was measured.
# [4] = tested on: Human normal dermal fibroblast (NHDF) cells; experiment: Cell viability in normal dermal fibroblasts; format: cell-based
# [5] = tested on: human erythroleukemia HEL (homozygous JAK2 V617F mutation) cells; experiment: MTS cell viability assay in HEL cells; format: cell-based; details: HEL Jak2 V617 mutation, 48 h
# Description: HEL Jak2 V617 mutation cells (10,000 cells/well) were treated with different concentration (0.1 μM to 20 μM in 1% DMSO of berbamine, BA #3, and BA #10 respectively for 48 h. Then, MTS assay for cell viability were carried out to determine the IC50 values. Four samples were tested for each test compound at each concentration, and the averaged data were shown in Table 3 and FIGS. 10-11.
# cancer cell lines = experiment: IC50 in cancer cell lines tested (summary statement); format: cell-based; details: summary over cell lines tested
# Source text: For example, berbamine derivatives (e.g. BA #3) show significant (at least 10-fold) improvement in activity over berbamine in cancer cell lines tested (e.g. K562/ADR). Berbamine derivatives (e.g. BA #3) also show inhibition of Jak2/Stat3 signaling in cancer cell lines (e.g. A2058, erythroleukemia HEL cells), and show down-regulation of Mcl-1 and Bcl-xL proteins.
# [6] = tested on: human acute lymphoblastic leukemia (Molt4) cells; experiment: MTS cell viability assay in Molt4 cells; format: cell-based; details: MOLT-4, Molt4, 48 h
# Description: (§2) Each type of cells (5,000 or 10,000 cells/well) were treated with different concentration (0.1 μM to 20 μM in 1% DMSO of berbamine and BA #3 respectively for 48 h. Then, MTS assay for cell viability were carried out to determine the IC50 values. Four samples were tested for each test compound at each concentration for each type of cells, and the averaged data were shown in Table 4 and FIGS. 12-13.
# [7] = tested on: human acute lymphocytic leukemia (Reh) cells; experiment: MTS cell viability assay in Reh cells; format: cell-based; details: 48 h
# Description: as §2
# [8] = tested on: multiple myeloma (U266) cells; experiment: MTS cell viability assay in U266 cells; format: cell-based; details: Homo sapiens, U-266, U266, 48 h
# Description: as §2
# melanoma A375 cells = experiment: MTS cell viability assay in A375 cells; format: cell-based; details: Homo sapiens, A-375, A375, 48 h
# Description: as §2
# melanoma G361 cells = experiment: MTS cell viability assay in G361 cells; format: cell-based; details: Homo sapiens, G-361, G361, 48 h
# Description: as §2
# melanoma SK-MEL-28 cells = experiment: MTS cell viability assay in SK-MEL-28 cells; format: cell-based; details: Homo sapiens, SK-MEL-28, 48 h
# Description: as §2
# melanoma SK-MEL-5 cells = experiment: MTS cell viability assay in SK-MEL-5 cells; format: cell-based; details: Homo sapiens, SK-MEL-5, 48 h
# Description: as §2
# [9] = tested on: ovarian cancer OVCAR5 cells; experiment: MTS cell viability assay in OVCAR5 cells; format: cell-based; details: Homo sapiens, OVCAR-5, OVCAR5, 48 h
# Description: as §2
# [10] = tested on: ovarian cancer SKOV3 cells; experiment: MTS cell viability assay in SKOV3 cells; format: cell-based; details: Homo sapiens, SK-OV-3, SKOV3, 48 h
# Description: as §2
# [11] = tested on: pancreatic cancer (PANC-1) cells; experiment: MTS cell viability assay in PANC-1 cells; format: cell-based; details: Homo sapiens, PANC-1, 48 h
# Description: as §2
# Jak2/Stat3 signaling [12] = experiment: Western blot of Jak2/Stat3 signaling in A2058 melanoma cells; format: cell-based; details: 0-10 μM for 4 hour or 10 μM for 0-24 hour
# Description: (§3) To determine whether BA #3 block Jak2/Stat3 or Src/Stat3 signaling pathway, A2058 melanoma (A and B) and erythroleukemia HEL cells were treated with BA #3 in a dose- or time-dependent manner. Western blots were performed with specific antibodies to p-Jak2, p-Src, p-Stat3, p-AKT, Jak2, Src, Stat3 and AKT.
# Jak2/Stat3 signaling [13] = experiment: Western blot of Jak2/Stat3 signaling in erythroleukemia HEL cells; format: cell-based; details: 0-10 μM, 4 hour
# Description: as §3
# Src kinase = Src kinase (Homo sapiens, UniProt P12931); experiment: In vitro Src kinase assay with peptide substrate; format: biochemical; details: activated recombinant protein with peptide substrate and ATP
# Chain of Src kinase (P12931 whole entry): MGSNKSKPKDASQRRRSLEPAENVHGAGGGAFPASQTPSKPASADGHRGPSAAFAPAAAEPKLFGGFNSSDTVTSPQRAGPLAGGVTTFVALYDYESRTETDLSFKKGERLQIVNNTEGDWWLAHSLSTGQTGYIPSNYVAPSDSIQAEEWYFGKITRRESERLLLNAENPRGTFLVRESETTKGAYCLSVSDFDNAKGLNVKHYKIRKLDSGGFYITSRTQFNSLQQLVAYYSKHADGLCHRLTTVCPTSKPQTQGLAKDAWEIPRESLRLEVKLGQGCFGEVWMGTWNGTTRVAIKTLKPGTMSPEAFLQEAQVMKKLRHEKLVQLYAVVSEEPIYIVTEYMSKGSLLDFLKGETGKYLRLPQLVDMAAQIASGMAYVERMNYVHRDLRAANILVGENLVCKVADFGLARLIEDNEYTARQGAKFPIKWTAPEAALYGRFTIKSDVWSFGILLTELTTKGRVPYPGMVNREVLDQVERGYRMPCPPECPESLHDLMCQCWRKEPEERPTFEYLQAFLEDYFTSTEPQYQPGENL
# Source text: (§4) To determine whether BA #3 inhibits activities of Src kinase, Jak2 kinase, Jak1 kinase and Tyk2 kinase in vitro, activated recombinant proteins were mixed with peptide substrates and ATP in the absence or the presence of BA #3. […] However, BA #3 reduced Jak2 autophosphorylation kinase activity at Tyr1007/1008 sites in vitro in the reaction of mixture of non-activated recombinant Jak2 protein and ATP in the absence of substrates (FIG. 19).
# Jak2 kinase = Jak2 kinase (Homo sapiens, UniProt O60674); experiment: In vitro Jak2 kinase assay with peptide substrate; format: biochemical; details: activated recombinant protein with peptide substrate and ATP
# Chain of Jak2 kinase (O60674 whole entry): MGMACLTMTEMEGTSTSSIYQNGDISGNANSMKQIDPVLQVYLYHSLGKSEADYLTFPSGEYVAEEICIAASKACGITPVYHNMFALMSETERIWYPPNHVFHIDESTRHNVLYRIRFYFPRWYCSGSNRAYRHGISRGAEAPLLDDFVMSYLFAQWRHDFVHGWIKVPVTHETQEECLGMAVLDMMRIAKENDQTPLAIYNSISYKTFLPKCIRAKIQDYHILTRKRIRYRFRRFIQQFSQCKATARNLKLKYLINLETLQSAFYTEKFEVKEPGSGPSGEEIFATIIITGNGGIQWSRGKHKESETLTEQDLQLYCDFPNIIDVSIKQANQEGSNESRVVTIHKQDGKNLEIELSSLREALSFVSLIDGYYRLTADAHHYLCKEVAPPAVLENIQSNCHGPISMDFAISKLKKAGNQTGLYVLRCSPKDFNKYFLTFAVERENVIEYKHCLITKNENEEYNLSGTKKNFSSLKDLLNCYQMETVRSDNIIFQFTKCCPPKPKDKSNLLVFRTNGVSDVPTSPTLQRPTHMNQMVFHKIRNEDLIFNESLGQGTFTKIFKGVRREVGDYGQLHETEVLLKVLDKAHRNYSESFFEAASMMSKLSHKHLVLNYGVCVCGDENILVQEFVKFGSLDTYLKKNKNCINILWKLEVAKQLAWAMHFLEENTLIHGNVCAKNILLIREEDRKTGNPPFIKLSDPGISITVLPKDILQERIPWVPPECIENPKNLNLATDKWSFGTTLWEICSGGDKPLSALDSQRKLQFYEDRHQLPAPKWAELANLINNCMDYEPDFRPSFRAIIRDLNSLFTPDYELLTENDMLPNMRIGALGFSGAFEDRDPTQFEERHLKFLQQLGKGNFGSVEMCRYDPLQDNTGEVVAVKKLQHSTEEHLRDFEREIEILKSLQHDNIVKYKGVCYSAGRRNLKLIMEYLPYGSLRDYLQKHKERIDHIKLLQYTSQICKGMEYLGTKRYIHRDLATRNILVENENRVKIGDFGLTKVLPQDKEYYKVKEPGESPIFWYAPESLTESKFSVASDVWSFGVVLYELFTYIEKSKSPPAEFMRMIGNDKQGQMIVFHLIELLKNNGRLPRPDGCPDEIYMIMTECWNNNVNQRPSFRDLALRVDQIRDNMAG
# Source text: as §4
# Jak1 kinase = Jak1 kinase (Homo sapiens, UniProt P23458); experiment: In vitro Jak1 kinase assay with peptide substrate; format: biochemical; details: activated recombinant protein with peptide substrate and ATP
# Chain of Jak1 kinase (P23458 whole entry): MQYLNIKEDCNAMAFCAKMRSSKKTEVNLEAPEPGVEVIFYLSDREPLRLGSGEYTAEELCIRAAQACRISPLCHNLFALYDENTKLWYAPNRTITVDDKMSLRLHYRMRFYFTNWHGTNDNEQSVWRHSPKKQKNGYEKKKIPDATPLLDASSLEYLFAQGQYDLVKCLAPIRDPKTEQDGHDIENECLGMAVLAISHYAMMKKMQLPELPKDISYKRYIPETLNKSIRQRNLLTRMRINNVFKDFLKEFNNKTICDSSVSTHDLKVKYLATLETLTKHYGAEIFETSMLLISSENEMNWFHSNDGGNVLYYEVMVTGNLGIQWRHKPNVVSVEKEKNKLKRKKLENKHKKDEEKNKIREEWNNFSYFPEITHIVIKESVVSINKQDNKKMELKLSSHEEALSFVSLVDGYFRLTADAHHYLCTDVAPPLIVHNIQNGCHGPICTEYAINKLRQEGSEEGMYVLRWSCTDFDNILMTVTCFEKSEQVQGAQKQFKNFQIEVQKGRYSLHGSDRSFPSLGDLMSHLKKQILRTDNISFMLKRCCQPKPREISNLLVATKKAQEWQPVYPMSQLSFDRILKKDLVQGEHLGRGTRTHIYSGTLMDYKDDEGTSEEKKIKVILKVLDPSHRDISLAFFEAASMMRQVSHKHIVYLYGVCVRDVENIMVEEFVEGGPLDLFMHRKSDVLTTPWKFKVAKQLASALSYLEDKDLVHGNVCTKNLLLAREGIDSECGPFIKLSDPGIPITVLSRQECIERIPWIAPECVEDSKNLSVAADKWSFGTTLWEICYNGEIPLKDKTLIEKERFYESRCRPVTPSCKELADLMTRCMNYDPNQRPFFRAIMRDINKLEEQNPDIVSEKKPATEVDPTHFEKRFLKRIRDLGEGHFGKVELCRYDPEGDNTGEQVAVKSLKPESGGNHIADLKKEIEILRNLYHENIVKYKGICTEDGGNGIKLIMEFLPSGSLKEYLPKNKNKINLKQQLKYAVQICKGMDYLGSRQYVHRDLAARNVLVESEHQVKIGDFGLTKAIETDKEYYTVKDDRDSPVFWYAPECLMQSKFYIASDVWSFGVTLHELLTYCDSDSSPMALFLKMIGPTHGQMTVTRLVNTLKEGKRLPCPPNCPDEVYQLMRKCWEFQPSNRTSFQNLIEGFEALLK
# Source text: as §4
# Tyk2 kinase = Tyk2 kinase (Homo sapiens, UniProt P29597); experiment: In vitro Tyk2 kinase assay with peptide substrate; format: biochemical; details: activated recombinant protein with peptide substrate and ATP
# Chain of Tyk2 kinase (P29597 whole entry): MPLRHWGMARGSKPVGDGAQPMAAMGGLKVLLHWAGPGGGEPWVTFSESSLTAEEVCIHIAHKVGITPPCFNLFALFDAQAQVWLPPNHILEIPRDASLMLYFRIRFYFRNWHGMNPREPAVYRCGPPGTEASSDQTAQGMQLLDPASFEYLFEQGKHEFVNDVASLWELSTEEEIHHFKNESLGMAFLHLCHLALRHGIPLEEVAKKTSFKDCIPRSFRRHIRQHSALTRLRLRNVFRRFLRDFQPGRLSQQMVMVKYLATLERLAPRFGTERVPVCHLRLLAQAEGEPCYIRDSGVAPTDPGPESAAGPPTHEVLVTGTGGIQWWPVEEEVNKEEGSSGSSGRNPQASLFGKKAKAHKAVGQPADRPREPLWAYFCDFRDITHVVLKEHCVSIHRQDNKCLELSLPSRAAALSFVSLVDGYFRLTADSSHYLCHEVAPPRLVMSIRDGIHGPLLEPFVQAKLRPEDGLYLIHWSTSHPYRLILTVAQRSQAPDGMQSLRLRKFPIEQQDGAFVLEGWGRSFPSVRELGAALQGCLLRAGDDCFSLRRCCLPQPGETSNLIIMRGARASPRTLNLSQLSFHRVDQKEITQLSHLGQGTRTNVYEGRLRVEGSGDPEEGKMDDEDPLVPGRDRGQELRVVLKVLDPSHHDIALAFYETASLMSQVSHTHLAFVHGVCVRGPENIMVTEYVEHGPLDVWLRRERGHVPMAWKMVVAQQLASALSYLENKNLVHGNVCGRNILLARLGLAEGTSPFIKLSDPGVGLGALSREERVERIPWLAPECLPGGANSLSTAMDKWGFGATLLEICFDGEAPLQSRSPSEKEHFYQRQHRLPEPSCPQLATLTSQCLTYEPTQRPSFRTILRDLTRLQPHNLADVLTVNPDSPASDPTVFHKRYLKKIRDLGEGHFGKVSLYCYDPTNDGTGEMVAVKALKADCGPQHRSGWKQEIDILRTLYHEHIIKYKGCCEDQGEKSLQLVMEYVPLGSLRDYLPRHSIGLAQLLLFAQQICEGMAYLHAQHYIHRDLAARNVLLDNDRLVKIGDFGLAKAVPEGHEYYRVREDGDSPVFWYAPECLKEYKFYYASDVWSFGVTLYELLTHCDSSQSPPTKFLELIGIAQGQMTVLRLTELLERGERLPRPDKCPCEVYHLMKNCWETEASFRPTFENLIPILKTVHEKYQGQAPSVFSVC
# Source text: as §4
# [14] = biological target: non-activated recombinant Jak2 protein (autophosphorylation at Tyr1007/1008) (Homo sapiens, UniProt O60674); experiment: In vitro Jak2 autophosphorylation kinase assay; format: biochemical; details: non-activated recombinant Jak2 and ATP, no substrate, densitometry; read-out: IC50 for inhibition of autophosphorylation kinase activity
# Chain of non-activated recombinant Jak2 protein (autophosphorylation at Tyr1007/1008) (O60674 whole entry): as the sequence (O60674 whole entry) above
# Source text: as §4, with “FIG. 19. In vitro Jak2 autophosphorylation kinase assay of BA #3. A) Autophosphorylation of Jak2 at Tyr1007/1008 was required for its catalytic activity, non-activated recombinant Jak2 protein was mixed with ATP in the absence or presence of BA #3; B) inhibitory activity of Jak2 autophosphorylation based on the densitometry of FIG. 19(A). To” for “To”
# Mcl-1 = experiment: Western blot of Mcl-1 protein; format: cell-based; details: 5 μM, 24 h
# Description: (§5) To determine whether BA #3 down-regulates Stat3 downstream anti-apototic proteins Mcl-1 and Bcl-xL, cells were treated with BA #3 in a dose-dependent manner for 24 h. Western blots were performed with specific antibodies to Mcl-1 and Bcl-xL.
# Bcl-xL = experiment: Western blot of Bcl-xL protein; format: cell-based; details: 5 μM, 24 h
# Description: as §5
# A2058 cells = experiment: Annexin V-FITC apoptosis assay; format: cell-based; details: 0-10 μM, 48 hours
# Description: A2058 cells were treated with BA #3 in a dose dependent manner (0-10 μM) for 48 hours.
# [15] = Maximum tolerated dose (MTD) study, body weight; format: in vivo; details: mice, oral, 50 mg/kg and 100 mg/kg every day for 5 days
# Description: Three test groups of mice (four mice per group) were orally administrated with vehicle only, 50 mg/kg BA #3 and 100 mg/kg BA #3 respectively every day for 5 days. Mice were weighed every day. Two sets of experiments were carried out (FIGS. 22(A) and (B)).
smiles,measurement,setting,value
COc1cc2c3cc1Oc1c(OC)c(OC)cc4c1[C@@H](Cc1ccc(OCCCNC(=O)c5cncs5)c(c1)Oc1ccc(cc1)C[C@@H]3N(C)CC2)N(C)CC4 [BA #7],IC50,[1],6.9 µM
same,IC50,[2],3.5 µM
"O=C1c2ccccc2C(=O)N1CCCOc1ccccc1 [Phthaloyl derivative, reference compound]",IC50,"[1]; Homo sapiens, DU-145, 48 h",> 20 µM
same,IC50,[2]; Homo sapiens,> 20 µM
COc1cc2c3cc1Oc1c(OC)c(OC)cc4c1[C@@H](Cc1ccc(OCCCNC(=O)c5cncs5)c(c1)Oc1ccc(cc1)C[C@@H]3N(C)CC2)N(C)CC4 [BA #9],IC50,[1],7.7 µM
same,IC50,[2],8.1 µM
COc1cc2c3cc1Oc1c(OC)c(OC)cc4c1[C@@H](Cc1ccc(OCCCNC(=O)c5cncs5)c(c1)Oc1ccc(cc1)C[C@@H]3N(C)CC2)N(C)CC4 [BA #11],IC50,[1],12.3 µM
same,IC50,[2],8.3 µM
COc1cc2c3cc1Oc1c(OC)c(OC)cc4c1[C@@H](Cc1ccc(OCCCNC(=O)c5cncs5)c(c1)Oc1ccc(cc1)C[C@@H]3N(C)CC2)N(C)CC4 [BA #5],IC50,[1],7.9 µM
same,IC50,[2],3.9 µM
COc1cc2c3cc1Oc1c(OC)c(OC)cc4c1[C@@H](Cc1ccc(O)c(c1)Oc1ccc(cc1)C[C@@H]3N(C)CC2)N(C)CC4 [Berbamine],IC50,"[1]; Homo sapiens, DU-145, 48 h",> 20 µM
same,IC50,[2]; Homo sapiens,> 20 µM
same,IC50,"[3]; Homo sapiens, K562/Adr, 48 h",8.9 µM
same,IC50,"[4]; Homo sapiens, 48 h",24 µM
same,IC50,[5],19.6 µM
same,IC50,cancer cell lines,> 20 µM
COc1cc2c3cc1Oc1c(OC)c(OC)cc4c1[C@@H](Cc1ccc(OCCCN5C(=O)c6ccccc6C5=O)c(c1)Oc1ccc(cc1)C[C@@H]3N(C)CC2)N(C)CC4 [BA #3],IC50,"[1]; Homo sapiens, DU-145, 48 h",3.4 µM
same,IC50,[2]; Homo sapiens,2.9 µM
same,improvement in activity over berbamine,[3],at least 10 fold
same,IC50,"[3]; Homo sapiens, K562/Adr, 48 h",1.1 µM
same,IC50,"[4]; Homo sapiens, 48 h",7.5 µM
same,IC50,[5],3.2 µM
same,IC50,[6],3.9 µM
same,IC50,[7],2.9 µM
same,IC50,[8],6.7 µM
same,IC50,melanoma A375 cells,3.7 µM
same,IC50,melanoma G361 cells,3.1 µM
same,IC50,melanoma SK-MEL-28 cells,3 µM
same,IC50,melanoma SK-MEL-5 cells,3.3 µM
same,IC50,[9],2.8 µM
same,IC50,[10],3.9 µM
same,IC50,[11],6.4 µM
same,"Jak2/Stat3 signaling (phosphorylations of Jak, Src, Stat3 and AKT)",Jak2/Stat3 signaling [12],inhibited Jak2/Stat3 signaling
same,"Jak2/Stat3 signaling (phosphorylations of Jak, Src, Stat3 and AKT)",Jak2/Stat3 signaling [13],inhibited Jak2/Stat3 signaling
same,inhibition of Src kinase activity,Src kinase,did not inhibit
same,inhibition of Jak2 kinase activity,Jak2 kinase,did not inhibit
same,inhibition of Jak1 kinase activity,Jak1 kinase,did not inhibit
same,inhibition of Tyk2 kinase activity,Tyk2 kinase,did not inhibit
same,IC50,[14],0.69 µM
same,Mcl-1 protein level,Mcl-1,down-regulated
same,Bcl-xL protein level,Bcl-xL,down-regulated
same,apoptosis (Annexin V-FITC),A2058 cells,induced apoptosis
same,body weight versus vehicle,[15],no significant weight differences
COc1cc2c3cc1Oc1c(OC)c(OC)cc4c1[C@@H](Cc1ccc(OCCCNC(=O)c5cncs5)c(c1)Oc1ccc(cc1)C[C@@H]3N(C)CC2)N(C)CC4 [BA #6],IC50,[1],3.5 µM
same,IC50,[2],3.4 µM
COc1cc2c3cc1Oc1c(OC)c(OC)cc4c1[C@@H](Cc1ccc(OCCCNC(=O)c5cncs5)c(c1)Oc1ccc(cc1)C[C@@H]3N(C)CC2)N(C)CC4 [BA #12],IC50,[1],5.6 µM
same,IC50,[2],3.3 µM
same,IC50,[4]; 48 hours,9.2 µM
COc1cc2c3cc1Oc1c(OC)c(OC)cc4c1[C@@H](Cc1ccc(OCCCNC(=O)c5cncs5)c(c1)Oc1ccc(cc1)C[C@@H]3N(C)CC2)N(C)CC4 [BA #8],IC50,[1],6.6 µM
same,IC50,[2],7.1 µM
COc1cc2c3cc1Oc1c(OC)c(OC)cc4c1[C@@H](Cc1ccc(OCCCNC(=O)c5cncs5)c(c1)Oc1ccc(cc1)C[C@@H]3N(C)CC2)N(C)CC4 [BA #13],IC50,[1],13.6 µM
same,IC50,[2],8.2 µM
COc1cc2c3cc1Oc1c(OC)c(OC)cc4c1[C@@H](Cc1ccc(OCCCNC(=O)c5cncs5)c(c1)Oc1ccc(cc1)C[C@@H]3N(C)CC2)N(C)CC4 [BA #4],IC50,[1],15.5 µM
same,IC50,[2],14.3 µM
same,IC50,[3]; 48 hours,3 µM
COc1cc2c3cc1Oc1c(OC)c(OC)cc4c1[C@@H](Cc1ccc(OCCCNC(=O)c5cncs5)c(c1)Oc1ccc(cc1)C[C@@H]3N(C)CC2)N(C)CC4 [BA #10],IC50,[1],3.7 µM
same,IC50,[2],3.4 µM
same,IC50,"[4]; Homo sapiens, 48 h",9.4 µM
same,IC50,[5],2.8 µM
COc1cc2c3cc1Oc1c(OC)c(OC)cc4c1[C@@H](Cc1ccc(OCCCNC(=O)c5cncs5)c(c1)Oc1ccc(cc1)C[C@@H]3N(C)CC2)N(C)CC4 [BA #1],IC50,[1],9.4 µM
same,IC50,[2],7.4 µM
same,IC50,[3]; 48 hours,6.4 µM
COc1cc2c3cc1Oc1c(OC)c(OC)cc4c1[C@@H](Cc1ccc(OCCCNC(=O)c5cncs5)c(c1)Oc1ccc(cc1)C[C@@H]3N(C)CC2)N(C)CC4 [BA #2],IC50,[1],15.2 µM
same,IC50,[2],14.6 µM
